By pEC50 is commonly meant −log10 of the EC50, conventionally taken in molar units.

The text below walks through data of patent US10689367B2, “Triazole pyridyl compounds as agonists of the APJ receptor” (AMGEN INC., priority 2016, dated 2020).

pEC50: −log10 of the molar value.

Chain of human APJ receptor (P35414 whole entry): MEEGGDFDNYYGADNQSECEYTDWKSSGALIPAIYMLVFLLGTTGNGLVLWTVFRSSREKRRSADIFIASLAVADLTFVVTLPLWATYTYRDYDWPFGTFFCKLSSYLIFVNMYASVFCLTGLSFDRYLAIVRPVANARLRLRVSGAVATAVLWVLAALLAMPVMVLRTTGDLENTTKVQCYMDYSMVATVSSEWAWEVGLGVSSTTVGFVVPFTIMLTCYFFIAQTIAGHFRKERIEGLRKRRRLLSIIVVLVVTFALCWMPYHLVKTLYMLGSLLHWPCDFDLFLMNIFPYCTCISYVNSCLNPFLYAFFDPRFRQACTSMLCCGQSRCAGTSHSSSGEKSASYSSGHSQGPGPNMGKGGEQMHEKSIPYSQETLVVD

The test concerns the target human APJ receptor (Homo sapiens (Human), UniProt P35414). The test can be described thus: [35S]GTPγS binding assay on membranes from CHO cells stably expressing human APJ receptor. It counts as biochemical. The note with it: membranes of CHO cells stably expressing human APJ receptor, read-out: Activity hAPJ SPA EC50 IP. The method, then: The human APJ receptor was cloned by polymerase chain reaction and the gene encoding the receptor was subcloned in pFLAG-CMV™-3 expression vector (Sigma, Saint Louis, Mo. USA) in-house at Amgen. A GTPγS binding assay was performed on membranes prepared from CHO cells stably expressing human APJ receptor. The optimum experimental conditions for the concentrations of GDP, MgCl2, and NaCl in the assay buffer were initially determined. […] Incubation was at RT for 90 min and the microplate was read using a ViewLux™ ultra HTS Microplate Imager (PerkinElmer, Inc.). All the results presented are means of several independent experiments and analyzed by non-linear regression methods using the commercially available program Prism (GraphPad, San Diego, Calif.) providing the EC50 values detailed in Table 27.
As to `COc1cccc(-c2nnc(NS(=O)(=O)[C@@H](C)[C@H](OC)c3ncc(Cl)cn3)n2[C@@H](C)c2c(C)noc2C)n1` (racemic) [Example 309.0, (1R,2S)-1-(5-chloropyrimidin-2-yl)-N-(4-((R)-1-(3,5-dimethylisoxazol-4-yl)ethyl)-5-(6-methoxypyridin-2-yl)-4H-1,2,4-triazol-3-yl)-1-methoxypropane-2-sulfonamide or (1R,2S)-1-(5-chloropyrimidin-2-yl)-N-(4-((S)-1-(3,5-dimethylisoxazol-4-yl)ethyl)-5-(6-methoxypyridin-2-yl)-4H-1,2,4-triazol-3-yl)-1-methoxypropane-2-sulfonamide], the pEC50 was 8.04.

Take `COc1cccc(-c2nnc(NS(=O)(=O)[C@@H](C)[C@H](OC)c3ncc(Cl)cn3)n2[C@@H](C)c2c(C)noc2C)n1` (racemic) [Example 310.0, (1R,2S)-1-(5-chloropyrimidin-2-yl)-N-(4-((R)-1-(3,5-dimethylisoxazol-4-yl)ethyl)-5-(6-methoxypyridin-2-yl)-4H-1,2,4-triazol-3-yl)-1-methoxypropane-2-sulfonamide or (1R,2S)-1-(5-chloropyrimidin-2-yl)-N-(4-((S)-1-(3,5-dimethylisoxazol-4-yl)ethyl)-5-(6-methoxypyridin-2-yl)-4H-1,2,4-triazol-3-yl)-1-methoxypropane-2-sulfonamide]: the pEC50 was 8.13.

As to `COc1cccc(-c2nnc(NS(=O)(=O)[C@@H](C)[C@H](OC)c3ncc(Cl)cn3)n2C[C@@H]2CCCOC2)n1` (racemic) [Example 311.0, (1R,2S)-1-(5-chloropyrimidin-2-yl)-1-methoxy-N-(5-(6-methoxypyridin-2-yl)-4-(((R)-tetrahydro-2H-pyran-3-yl)methyl)-4H-1,2,4-triazol-3-yl)propane-2-sulfonamide or (1R,2S)-1-(5-chloropyrimidin-2-yl)-1-methoxy-N-(5-(6-methoxypyridin-2-yl)-4-(((S)-tetrahydro-2H-pyran-3-yl)methyl)-4H-1,2,4-triazol-3-yl)propane-2-sulfonamide], the pEC50 was 7.48.

In the case of `COc1cccc(-c2nnc(NS(=O)(=O)[C@@H](C)[C@H](OC)c3ncc(Cl)cn3)n2C[C@@H]2CCCOC2)n1` (racemic) [Example 312.0, (1R,2S)-1-(5-chloropyrimidin-2-yl)-1-methoxy-N-(5-(6-methoxypyridin-2-yl)-4-(((R)-tetrahydro-2H-pyran-3-yl)methyl)-4H-1,2,4-triazol-3-yl)propane-2-sulfonamide or (1R,2S)-1-(5-chloropyrimidin-2-yl)-1-methoxy-N-(5-(6-methoxypyridin-2-yl)-4-(((S)-tetrahydro-2H-pyran-3-yl)methyl)-4H-1,2,4-triazol-3-yl)propane-2-sulfonamide], the pEC50 was 7.89.

As for `COc1cccc(-c2nnc(NS(=O)(=O)[C@@H](C)[C@H](C)c3ncc(Cl)cn3)n2[C@@H](C)c2c(C)noc2C)n1` (racemic) [Example 313.0, (2S,3R)-3-(5-chloropyrimidin-2-yl)-N-(4-((R)-1-(3,5-dimethylisoxazol-4-yl)ethyl)-5-(6-methoxypyridin-2-yl)-4H-1,2,4-triazol-3-yl)butane-2-sulfonamide or (2S,3R)-3-(5-chloropyrimidin-2-yl)-N-(4-((S)-1-(3,5-dimethylisoxazol-4-yl)ethyl)-5-(6-methoxypyridin-2-yl)-4H-1,2,4-triazol-3-yl)butane-2-sulfonamide], the negative logarithm of the EC50 (pEC50) is 7.68.

As for `COc1cccc(-c2nnc(NS(=O)(=O)[C@@H](C)[C@H](C)c3ncc(Cl)cn3)n2[C@@H](C)c2c(C)noc2C)n1` (racemic) [Example 314.0, (2S,3R)-3-(5-chloropyrimidin-2-yl)-N-(4-((R)-1-(3,5-dimethylisoxazol-4-yl)ethyl)-5-(6-methoxypyridin-2-yl)-4H-1,2,4-triazol-3-yl)butane-2-sulfonamide or (2S,3R)-3-(5-chloropyrimidin-2-yl)-N-(4-((S)-1-(3,5-dimethylisoxazol-4-yl)ethyl)-5-(6-methoxypyridin-2-yl)-4H-1,2,4-triazol-3-yl)butane-2-sulfonamide], the negative-log EC50 (pEC50) is 7.48.

For the compound `COc1cccc(-c2nnc(NS(=O)(=O)[C@@H](C)[C@@H](OC(C)C)c3ncc(C)cn3)n2[C@@H](C)c2c(C)noc2C)n1` (racemic) [Example 315.0], the pEC50 is 7.24.

Take `COc1cccc(-c2nnc(NS(=O)(=O)[C@@H](C)[C@@H](OC(C)C)c3ncc(C)cn3)n2[C@@H](C)c2c(C)noc2C)n1` (racemic) [Example 316.0, (1S,2S)-N-(4-((R)-1-(3,5-dimethylisoxazol-4-yl)ethyl)-5-(6-methoxypyridin-2-yl)-4H-1,2,4-triazol-3-yl)-1-isopropoxy-1-(5-methylpyrimidin-2-yl)propane-2-sulfonamide or (1S,2S)-N-(4-((S)-1-(3,5-dimethylisoxazol-4-yl)ethyl)-5-(6-methoxypyridin-2-yl)-4H-1,2,4-triazol-3-yl)-1-isopropoxy-1-(5-methylpyrimidin-2-yl)propane-2-sulfonamide]: the pEC50 is 7.68.

As for `COc1cccc(-c2nnc(NS(=O)(=O)[C@@H](C)[C@H](OC)c3ncc(Cl)cn3)n2[C@H](C)[C@@H]2CCCCO2)n1` (racemic) [Example 319.0], the negative-log EC50 (pEC50) was 9.36.

With `COC[C@@H](C)n1c(NS(=O)(=O)[C@@H](C)[C@H](C)c2ncc(Cl)cn2)nnc1-c1cccnc1` (single isomer, unassigned) [Example 52.0], the pEC50 is 7.80.

`COC[C@@H](C)n1c(NS(=O)(=O)[C@@H](C)[C@H](C)c2ncc(Cl)cn2)nnc1-c1cccnc1` (single isomer, unassigned) [Example 53.0]: the negative-log EC50 (pEC50) was 7.52.

`CC[C@@H](C)n1c(NS(=O)(=O)[C@@H](C)[C@H](OC)c2ncc(Cl)cn2)nnc1-c1cccc(OC)n1` (single isomer, unassigned) [Example 54.0]: the pEC50 is 9.30.

As for `CC[C@@H](C)n1c(NS(=O)(=O)[C@@H](C)[C@H](OC)c2ncc(Cl)cn2)nnc1-c1cccc(OC)n1` (single isomer, unassigned) [Example 55.0], the negative logarithm of the EC50 (pEC50) is 9.40.

Turning to `COc1cccc(-c2nnc(NS(=O)(=O)[C@@H](C)[C@H](OC)c3ncc(Cl)cn3)n2[C@@H]2CC23CC3)n1` (single isomer, unassigned) [Example 90.0], the pEC50 was 8.21.

On to `COc1cccc(-c2nnc(NS(=O)(=O)[C@@H](C)[C@H](OC)c3ncc(Cl)cn3)n2[C@@H]2CC23CC3)n1` (single isomer, unassigned) [Example 91.0], for which the pEC50 is 7.42.

On to `COc1cccc(-c2nnc(NS(=O)(=O)[C@@H](C)[C@H](OC)c3ncc(Cl)cn3)n2[C@@H]2CCC23CCC3)n1` (single isomer, unassigned) [Example 92.0], for which the pEC50 was 8.92.

On to `COc1cccc(-c2nnc(NS(=O)(=O)[C@@H](C)[C@H](OC)c3ncc(Cl)cn3)n2[C@@H]2CCC23CCC3)n1` (single isomer, unassigned) [Example 93.0], for which the pEC50 was 8.64.

In the case of `COc1cccc(-c2nnc(NS(=O)(=O)[C@@H](C)[C@H](OC)c3ncc(Cl)cn3)n2CC[S@+](C)[O-])n1` (single isomer, unassigned) [Example 94.0], the pEC50 is 6.00.

For `COc1cccc(-c2nnc(NS(=O)(=O)[C@@H](C)[C@H](OC)c3ncc(Cl)cn3)n2CC[S@+](C)[O-])n1` (single isomer, unassigned) [Example 95.0], the pEC50 was 7.59.

In the case of `COc1cnc([C@@H](OC)[C@H](C)S(=O)(=O)Nc2nnc(-c3cccc(OC)n3)n2[C@H]2CC23CC3)cn1` (single isomer, unassigned) [Example 159.0, (1R,2S)-1-methoxy-1-(5-methoxypyrazin-2-yl)-N-(5-(6-methoxypyridin-2-yl)-4-((S)-spiro[2.2]pentan-1-yl)-4H-1,2,4-triazol-3-yl)propane-2-sulfonamide or (1R,2S)-1-methoxy-1-(5-methoxypyrazin-2-yl)-N-(5-(6-methoxypyridin-2-yl)-4-((R)-spiro[2.2]pentan-1-yl)-4H-1,2,4-triazol-3-yl)propane-2-sulfonamide], the pEC50 is 6.26.

For `COc1cnc([C@@H](OC)[C@H](C)S(=O)(=O)Nc2nnc(-c3cccc(OC)n3)n2[C@H]2CC23CC3)cn1` (single isomer, unassigned) [Example 160.0, (1R,2S)-1-methoxy-1-(5-methoxypyrazin-2-yl)-N-(5-(6-methoxypyridin-2-yl)-4-((S)-spiro[2.2]pentan-1-yl)-4H-1,2,4-triazol-3-yl)propane-2-sulfonamide or (1R,2S)-1-methoxy-1-(5-methoxypyrazin-2-yl)-N-(5-(6-methoxypyridin-2-yl)-4-((R)-spiro[2.2]pentan-1-yl)-4H-1,2,4-triazol-3-y)propane-2-sulfonamide], the pEC50 is 7.05.

Regarding `COc1cccc(-c2nnc(NS(=O)(=O)[C@@H](C)[C@H](OC)c3ncc(Cl)cn3)n2[C@@H]2CC[C@H]2OC)n1` (single isomer, unassigned) [Example 161.0, (1R,2S)-1-(5-Chloropyrimidin-2-yl)-1-methoxy-N-(4-((1R,2R)-2-methoxycyclobutyl)-5-(6-methoxypyridin-2-yl)-4H-1,2,4-triazol-3-yl)propane-2-sulfonamide or (1R,2S)-1-(5-chloropyrimidin-2-yl)-1-methoxy-N-(4-((1S,2S)-2-methoxycyclobutyl)-5-(6-methoxypyridin-2-yl)-4H-1,2,4-triazol-3-yl)propane-2-sulfonamide], the pEC50 was 8.66.
